Literature values in US9480691B1, “Topical liquid containing refined peanut oil for treating skin proliferation or inflammation disorders” (Hill Dermaceuticals, Inc., priority 2009, dated 2016).

System: hypothalamus-pituitary-adrenal (HPA) axis
Settings: at effective and prescribed doses

CCC(=O)O[C@]1(C(=O)CCl)[C@@H](C)C[C@H]2[C@@H]3CCC4=CC(=O)C=C[C@]4(C)[C@@]3(F)[C@@H](O)C[C@@]21C [clobetasol propionate, (11β,16β)-21-chloro-9-fluoro-11-hydroxy-16-methyl-17-(1-oxo-propoxy)pregna-1,4-diene,3,10-dione]
effect on HPA axis: suppress the hypothalamus-pituitary-adrenal (HPA) axis
